Assay results published in publication PMC10530652 (BME Frontiers, 2021).

Columns and labels:
[1] = test system: MMP activity in ex vivo ventilated ovine lung; assay: Ex vivo ovine lung model instilled with OPA supernatant, FCFM imaging; conditions: marimastat 100 μM with OPA supernatant, 5 μM FIB One
Method: Ovine pulmonary adenocarcinoma (OPA) tissue was homogenised using a drill homogeniser, followed by lysis in cell lysis buffer. The supernatant was collected following centrifugation at 12,000 rpm for 20 min. The samples were adjusted to 1 mg mL^-1 total protein (determined by a Pierce BCA Total Protein Assay Kit (Thermo Fisher Scientific)). Zymography (as described above) was performed to confirm MMP activity across multiple OPA samples. Recombinant MMP-9 (2 nM) and recombinant pro-MMP-9 (0.5 nM) were included in the assay as positive controls. […] Following >30 min, the segments were bronchoscopically identified and microdosed with 5 μM FIB One in 1 mL. FCFM imaging was undertaken pre- and postinstillation (Cellvizio®, Mauna Kea Technologies). This was performed by passing a FCFM fibre into the disparate bronchopulmonary segments (up to 5 passes per bronchopulmonary segment to capture a regional representation of fluorescence), recording images at 12 frames per second and imaging for up to 5 minutes. Videos were analysed as described above. Each experimental set was normalised to the control segment (segment with 1 mL 0.9% NaCl instilled) which represents intrinsic autofluorescence.

MMP-2 = target: T1, MMP-2 (Homo sapiens, UniProt P08253); assay: In vitro enzymatic validation of FIB One with recombinant MMP-2 (plate reader); format: biochemical; conditions: marimastat 20 μM, enzyme pre-incubated 30 min at 37°C, FIB One 1 μM, MMP 30 nM
T1 construct: recombinant MMPs (Enzo Life Sciences) (active domains of MMP-1, MMP-2, MMP-3, MMP-7, MMP-8, MMP-9, MMP-10, MMP-11, MMP-12, and MMP-13); purchased Enzo Life Sciences
Method: (§1) To determine the enzymatic specificity of FIB One, the probe was incubated at a concentration of 1 μM (unless otherwise stated) with the recombinant MMPs (Enzo Life Sciences) (active domains of MMP-1, MMP-2, MMP-3, MMP-7, MMP-8, MMP-9, MMP-10, MMP-11, MMP-12, and MMP-13, all at 30 nM), thrombin (Sigma Aldrich) (5 U/mL), factor Xa (Sigma Aldrich) (500 nM), plasmin (Sigma Aldrich) (30 nM), and human neutrophil elastase (30 nM). Where appropriate, enzymes were incubated with specific inhibitors for 30 min at 37°C prior to addition of FIB One. […] Enzyme free reactions served as a control. Enzymatic reactions were performed in MMP buffer (10 mM CaCl2, 6.1 g Tris-HCl, 8.6 g NaCl per litre, pH 7.5) in a final volume of 20 μL. Reactions were performed in duplicate in 384-well plates (Life Technologies) with optically clear plate seals (Thermo Scientific) and repeated thrice (independently). Fluorescence signal was measured for up to 60 min, ex/em 485/528 nm using microplate reader (BioTek Synergy H1 multimode reader). Data were normalised to buffer alone and are presented as fold-change in signal (relative fluorescent units, RFU) compared to enzyme-free controls. Data were plotted using Prism 7 (GraphPad Software Inc., La Jolla, CA, USA).

MMP-9 = target: T2, MMP-9 (Homo sapiens, UniProt P14780); assay: In vitro enzymatic validation of FIB One with recombinant MMP-9 (plate reader); format: biochemical; conditions: marimastat 20 μM, enzyme pre-incubated 30 min at 37°C, FIB One 1 μM, MMP 30 nM
T2 construct: recombinant MMPs (Enzo Life Sciences) (active domains of MMP-1, MMP-2, MMP-3, MMP-7, MMP-8, MMP-9, MMP-10, MMP-11, MMP-12, and MMP-13); purchased Enzo Life Sciences
Method: as §1

[2] = test system: primary human lung tissue; assay: Ex vivo fibre-based (FCFM) imaging of human lung tissue with FIB One; conditions: marimastat 100 μM, FIB One 1 μM, 10 min, n=9, P=0.0215
Method: Human lung tissue samples (lung tumour and noncancerous adjacent tissue) were obtained following surgical resection and stored at -80° C until use. Processing for multiwell plate reader assay or zymography analysis was conducted as follows: 1 mm×4 mm sections were homogenised in 400 μL MMP buffer in Precellys 2.8 mm ceramic bead tubes (VWR) using a Pecellys 24 homogeniser. Homogenised tissue was adjusted to 4 mg mL^-1 protein (determined by a Pierce BCA Total Protein Assay Kit (Thermo Fisher Scientific), following the manufacturer’s instructions). Multiwell plate reader assays were performed as previously described, replacing the MMP buffer and MMP enzymes for the homogenised and protein-adjusted lung tissue.
For ex vivo imaging, human lung tissue was sliced into 1 mm×4 mm sections and placed in the wells of a 96-well plate with 100 μL of MMP buffer and 30 nM MMP-13. […] The fluorescence for each sample was calculated by determining the average fluorescence per frame for each time point. […] Five independent patient specimens were collected and analysed. RFUs collected from off-target frames (showing motion artefact or absence of any fluorescence) were omitted during analysis.

[3] = test system: stimulated human neutrophils; assay: FIB One cleavage in supernatant from stimulated neutrophils; format: cell-based; conditions: coincubation with marimastat, FIB One 1 μM, 10 min
Method: Neutrophils were isolated from the blood of healthy human volunteers as previously described. The number of retrieved neutrophils was determined with NucleoCounter NC-1000 (Chemo Metec). Neutrophils were resuspended at a concentration of 20×10^6 mL^-1 in 0.9% NaCl with 0.9 mM CaCl2. Cells were incubated for 30 min at 37°C. Cells to be stimulated were subsequently activated with 5 μM calcium ionophore A23187 (Tocris Bioscience) for 30 min at 37°C. Neutrophils were harvested by centrifugation at 400 x g for 5 min. Supernatants were removed and stored. Plate reader assays were performed as described above, with the MMP buffer replaced with neutrophil supernatant. All experiments were carried out in duplicate using three independent donors (one donor per independent repeat). Data were normalised by background subtraction of intrinsic fluorescence.

[4] = supernatant from stimulated (5 μM calcium ionophore A23187) neutrophils; conditions: human, up to 10 minutes

T1 sequence (P08253 110-446 limits assumed): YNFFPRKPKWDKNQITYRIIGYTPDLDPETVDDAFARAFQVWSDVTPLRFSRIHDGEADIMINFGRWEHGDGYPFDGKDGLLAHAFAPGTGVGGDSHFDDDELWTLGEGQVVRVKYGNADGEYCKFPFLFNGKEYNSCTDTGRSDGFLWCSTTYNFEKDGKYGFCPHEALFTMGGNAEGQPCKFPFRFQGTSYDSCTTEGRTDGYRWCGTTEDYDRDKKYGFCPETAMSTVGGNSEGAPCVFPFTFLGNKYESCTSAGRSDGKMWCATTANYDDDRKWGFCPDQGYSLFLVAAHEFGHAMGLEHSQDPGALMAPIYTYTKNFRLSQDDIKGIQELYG
T2 sequence (P14780 107-444 limits assumed): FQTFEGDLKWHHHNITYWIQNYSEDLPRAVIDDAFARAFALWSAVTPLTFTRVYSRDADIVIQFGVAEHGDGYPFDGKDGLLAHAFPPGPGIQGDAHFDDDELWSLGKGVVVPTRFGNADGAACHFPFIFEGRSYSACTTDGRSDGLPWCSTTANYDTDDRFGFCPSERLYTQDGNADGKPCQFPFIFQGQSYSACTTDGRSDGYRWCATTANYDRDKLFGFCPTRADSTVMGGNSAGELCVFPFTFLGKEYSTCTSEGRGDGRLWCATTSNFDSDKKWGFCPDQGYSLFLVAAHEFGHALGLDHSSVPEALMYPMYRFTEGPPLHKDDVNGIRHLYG

## CNC(=O)[C@@H](NC(=O)[C@H](CC(C)C)[C@H](O)C(=O)NO)C(C)(C)C [marimastat, reference compound]
[1]
  FIB One signal in inhibitor-dosed segments: did not show an increase in FIB One signal
MMP-2
  inhibition of FIB One activation: blocked
MMP-9
  inhibition of FIB One activation: blocked
[2]
  inhibition of FIB One cleavage: cleavage inhibition observed
[3]
  inhibition of FIB One cleavage: cleavage inhibition observed

## FAM-PEG2-Pro-Phe-Gly-Nle-Lys-βAla-Lys(MethylRed)-PEG2-(D)Lys-PEG2-(D)Lys
[4]
  fragment found: peak at 823 Da, 10 min
